Laboratory results: patent publication US6613317B1, “Volatile attractants for diabrotica species” (priority 1988, dated 2003)
Marks after values point to notes of the source that are not given here.

How the values were obtained:
[1] = tested on: western corn rootworm (WCR) adults; assay: Sticky trap attraction in corn, estragole analogues (Example 3); type: in vivo, Diabrotica virgifera virgifera; conditions: 100 mg per trap, n = 4; for Mean number of WCR per sticky trap after 24 hours: August 5 (Table 10)
Description: (§1) Test chemicals were applied by capillary micropipettes to cotton dental wicks that were attached to tops of 1.0 liter cylindrical paper cartons covered with TangleTrap™, Grand Rapids, Mich. The trapping techniques used were as previously described in Example 1. Cinnamyl alcohol, 4-methoxycinnamaldehyde, cinnamyl acetate, and 4-(4′methoxyphenyl)-3-butene-2-one which are solids at ambient temperature were prepared as standard w/v solutions in acetone prior to dosing the cotton wicks. All treatments were made at a dosage of 100 mg or 100 μL of attractant per trap. Control traps had untreated wicks. Four replicates of treated and untreated traps were positioned randomly 10 meters apart on top of 1 m high posts along the edges of 25-50 ha. fields of hybrid corn (Zea mays), infested with adult NCR, SCR, and WCR beetles. Several experiments detailed in the Tables were made in a 0.4 ha plot of sweet corn (Illini X-tra Sweet).
(§2) Attraction of Diabrotica species adults of the sticky traps was measured by the mean number of beetles caught after 1 day (ca. 24 hours) exposure. The significance of the treatments was determined by analysis of variance and the individual means were separated by Duncan's multiple range test (Statistical Package for the Social Sciences, Nie, et al., 2nd. ed. McGraw-Hill, New York (1975). The data was logarithmically transformed for statistical analysis. Means and standard deviations are presented for the untransformed data. Significance levels were set at P=0.05 for all statistical analyses.

[2] = tested on: southern corn rootworm (SCR) adults; assay: as above; type: in vivo, Diabrotica undecimpunctata howardi; conditions: 100 mg per trap, n = 4; for Mean number of SCR per sticky trap after 24 hours: August 5 (Table 10)
Description: as §1, §2

[3] = tested on: northern corn rootworm (NCR) adults; assay: as above; type: in vivo, Diabrotica barberi; conditions: August 5 (Table 10); 100 mg per trap; n = 4
Description: as §1, §2

D. barberi = assay: Sticky trap attraction in prairie habitat, Trelease Woods (Example 2); type: in vivo, Diabrotica barberi; conditions: August 14, 1987; 100 mg per trap; n = 4
Description: (§3) The candidate lures in all experiments were purchased commercially and exceeded 98% purity. The test chemicals were applied by capillary micropipettes to cotton dental wicks which were attached to the tops of 1.0 liter cylindrical paper cartons covered with TangleTrap™ (Tanglefoot Co., Grand Rapids, Mich.). The sticky trap techniques used were as described in Example 1. Cinnamyl alcohol and para-methoxycinnamaldehyde, which are solids, were dissolved in glass-distilled acetone prior to dosing the cotton wicks. […]. Control traps had untreated cotton wicks. Four replicates of treated and untreated traps were randomly positioned 10 meters apart on top of 1 m high posts along the border of a eight foot wide strip cut through the middle of a 4.05 ha relict prairie at Trelease Woods (ca. two miles northeast of Urbana, Ill.). The field consisted primarily of Andropogon gerardii Vitman (big bluestem) and a variety of composites. The tests were conducted in mid-August of two years and were timed to coincide with the presence of D. cristata and D. barberi adults in the flower heads of Canada thistle (Carduus arvensis Robson). In the second year, several new attractants of D. v. virgifera and D. barberi were tested in Trelease Woods and along the edge of a 0.8 ha field of hybrid corn located at the Pomology South Farms, Urbana, Ill. Attraction of Diabrotica species to the various lures was measured by the mean number of beetles caught after 24-h. On one date in late August of the first year, D. cristata and D. barberi were removed from the traps and sexed in the laboratory. The significance of treatments in all tests was determined by an analysis of variance and the individual means were separated by Duncan's multiple range test (Statistical Package for Social Science, Nie, et al., SPSS: statistical package for the social sciences, 2nd ed. McGraw-Hill, New York (1975). Data were logarithmically transformed for statistical analysis and the means and standard deviations are presented for the untransformed data.

D. cristata = assay: as above; type: in vivo, Diabrotica cristata; conditions: August 14, 1987; 100 mg per trap; n = 4
Description: as §3

D. v. virgifera = assay: as above; type: in vivo, Diabrotica virgifera virgifera; conditions: August 14, 1987; 100 mg per trap; n = 4
Description: as §3

D. u. howardi = assay: as above; type: in vivo, Diabrotica undecimpunctata howardi; conditions: August 14, 1987; 100 mg per trap; n = 4
Description: as §3

NCR = assay: Limit of response rating of squash blossom volatiles on sticky traps (Example 5); type: in vivo, Diabrotica barberi; conditions: 24 hour; four replicate traps; 0.01 mg to 200 mg
Description: (§4) Over 40 individual volatile chemicals have been isolated from Cucurbita maxima blossoms and circa 25 of these have been unequivocally identified (Andersen, J. F., J. Agric. Food Chem., 35:60-62 (1987): Andersen, J. F. and Metcalf, R. L., J. Chem. Ecol., 12:687-699 (1986)). The major odor components were evaluated as potential attractants for adult Diabrotica species using cylindrical sticky traps baited with dental cotton wicks (Metcalf, R. L., and Lampman, R. L., Paper submitted to J. Econ. Entomol., (1988)) containing from 0.01 mg to 200 mg of volatile compound.

SCR = assay: as above; type: in vivo, Diabrotica undecimpunctata howardi; conditions: 24 hour; four replicate traps; 0.01 mg to 200 mg
Description: as §4

WCR = assay: as above; type: in vivo, Diabrotica virgifera virgifera; conditions: 24 hour; four replicate traps; 0.01 mg to 200 mg
Description: as §4

[4] = tested on: southern corn rootworm (SCR) adults; assay: Sticky trap attraction in sweet corn plots (Example 1); type: in vivo, Diabrotica undecimpunctata howardi; conditions: for Mean number of SCR per trap (±standard deviation): n = 4
Description: (§5) The attraction of Diabrotica species to single-component and multicomponent lures was evaluated in corn fields. The field experiments on attraction of SCR and WCR adults were conducted in 0.405-ha (1-acre) plots of “Illini Xtra Sweet” corn grown on the University of Illinois South Farms at Urbana, Ill., over a two year period. Most of the tests were conducted in August to correspond with the peak silk-feeding and oviposition periods of corn rootworm adults in central Illinois. In both years, the sweet corn plot was adjacent to a 0.405-ha trap crop of C. maxima cultivar “Blue Hubbard”, to provide high densitites of SCR and WCR adults in the corn plots (Howe, et al., Environ. Entomol., 5:745-751 (1976), Lampman, et al., J. Chem. Ecol., 13:959-975 (1987).
(§6) Attraction of Diabrotica species to volatile compounds was measured by the average number of beetles cought during a 24-h period on 1.0-liter cylindrical paper cartons (15.2 cm high, 27.9 cm circumference) which were evenly coated with clear insect adhesive, TangleTrap™ (Tanglefood Co., Grand Rapids, Mich.) The candidate attractants were applied by capillary micropiettes to cotton dental wicks (13 mm long by 6 mm diameter) that were previously impregnated with mineral oil to prolong volatilization. The chemicals were purchased from Aldrich Chemical Co., (Milwaukee, Wis.) and assayed by gas chromatography as >97% pure. Indole, a solid at ambient temperatures (m.p. 52-54° C.), was dissolved in glass-distilled acetone before dosing the cotton wicks. For dosage-acticity tests, the various components were mixed in equal quantities by weight and diluted to the appropriate dosage with acetone. Treated and untreated (control) wicks were attached to the top of the paper cartons with TangleTrap™ and the inverted traps were placed on 1-m-high posts between the sweet corn rows. Four replicates of each treatment and a control were conducted in a randomized complete block desgin. The sticky traps within a block (ca. 50-m row of corn) were 5-10 m apart (depending on the number of treatments in a particular test) and the blocks were 3 m apart. The traps were baited and placed in the field between 1000 and 1300 hours and beetle counts were taken after 24 h. The significance of treatments was determined by analysis of variance and the individual means were separated by Duncan's multiple range test (Statistical Package for Social Sciences (SPSS) (Nie, et al., SPSS: statistical package for the social sciences, 2nd ed. McGraw-Hill, N.Y. (1975)). Student's t test was used for comparisons of two means (Sokal, et al., Biometry, Freeman, San Francisco (1969). Significance levels were set at P=0.05 at all statistical analyses.
(§7) The initial field test in August of the first year evaluated the response of SCR and WCR adults of a mixture of veratrole (V), indole (I), phenylacetaldehyde (P), trans-anethole (A), and eugenol (E) (=VIPAE mixture), as well as to the individual components. Each component in the VIPAE mixture was present at a dosage of 20 mg per trap and was compared with the individual components at 100 mg per trap. The response of SCR and WCR adults to a range of VIPAE doses, 1-300 mg, was conducted on the following day. Fifty SCR adults were removed from each 100-mg VIPAE trap, and returned to the laboratory for sex determination. Additional analyses in August evaluated the reduction in trap catches produced by the sequential removal of the individual components from the VIPAE lure. After the primary components of the initial lure were determined, a modified multicomponent lure consisting of veratrole, indole, and phenylacetaldehyde (=VIP mixture) was compared with its individual components to determine whether the attraction of SCR adults was the result of interactive or additive factors. The attraction and synergistic response of SCR adults of the VIP mixture was verified by tests conducted in August of the following year. […]

[5] = tested on: western corn rootworm (WCR) adults; assay: as above; type: in vivo, Diabrotica virgifera virgifera; conditions: for Mean number of WCR per trap (±standard deviation): n = 4
Description: as §5, §6, §7

[6] = August 4, second year, each compound 20 mg per trap
[7] = August 7, second year, each compound 20 mg per trap
[8] = August first year, South Farms, 24 h, single compounds 100 mg per trap, mixture 20 mg of each component
[9] = August first year, single compounds 100 mg per trap, mixture 20 mg each component

Compound: O=C(O)C=Cc1ccccc1 [XX, cinnamic acid]
- Mean number of WCR per sticky trap after 24 hours [1]: 12.7 ± 4.9^a per sticky trap
- Mean number of SCR per sticky trap after 24 hours [2]: 1.7 ± 0.5^a per sticky trap
- Mean number of NCR per sticky trap after 24 hours [3]: 1.7 ± 1.0^a per sticky trap

Compound: CC(=O)OCC=Cc1ccccc1 [XIX, cinnamyl acetate]
- Mean number of WCR per sticky trap after 24 hours [1]: 24.0 ± 1.07^b per sticky trap
- Mean number of SCR per sticky trap after 24 hours [2]: 6.0 ± 1.5^a per sticky trap
- Mean number of NCR per sticky trap after 24 hours [3]: 5.7 ± 2.9^b per sticky trap

Compound: COC(=O)C=Cc1ccccc1 [XV, cinnamic acid methyl ester]
- Mean number of WCR per sticky trap after 24 hours [1]: 9.5 ± 4.5^a per sticky trap
- Mean number of WCR adults per sticky trap (±standard deviation) after 24 hours ([1]; September 11): 1.7 ± 1.7^a per sticky trap
- Mean number of SCR per sticky trap after 24 hours [2]: 2.0 ± 0.8^a per sticky trap
- Mean number of SCR adults per sticky trap (±standard deviation) after 24 hours ([2]; September 11): 3.2 ± 1.7^ab per sticky trap
- Mean number of NCR per sticky trap after 24 hours [3]: 0.5 ± 0.6^a per sticky trap

Compound: N#CCCc1ccccc1 [XXIII, phenyl propionitrile]
- Mean number of WCR per sticky trap after 24 hours [1]: 12.0 ± 4.2^a per sticky trap
- Mean number of SCR per sticky trap after 24 hours [2]: 23.7 ± 9.7^b per sticky trap
- Mean number of NCR per sticky trap after 24 hours [3]: 0.3 ± 0.5^a per sticky trap

Compound: N#CC=Cc1ccccc1 [X, cinnamonitrile]
- Mean number of WCR adults per sticky trap (±standard deviation) after 24 hours ([1]; August 4 second year): 32.7 ± 11.4^bc per sticky trap
- Mean number of WCR per sticky trap after 24 hours [1]: 37.8 ± 7.8^cd per sticky trap
- Mean number of WCR adults per sticky trap (±standard deviation) after 24 hours ([1]; August 5 first year): 1.5 ± 6.6^ab per sticky trap
- Mean number of SCR adults per sticky trap (±standard deviation) after 24 hours ([2]; August 4 second year): 59.5 ± 49.0^c per sticky trap
- Mean number of SCR per sticky trap after 24 hours [2]: 47.5 ± 15.4^cd per sticky trap
- Mean number of SCR adults per sticky trap (±standard deviation) after 24 hours ([2]; August 5 first year): 156.0 ± 37.2^c per sticky trap
- Mean number of NCR per sticky trap after 24 hours [3]: 0.3 ± 0.5^a per sticky trap

Compound: O=C(O)CCc1ccccc1 [XXII, dihydrocinnamic acid]
- Mean number of WCR per sticky trap after 24 hours [1]: 12.0 ± 3.6^a per sticky trap
- Mean number of SCR per sticky trap after 24 hours [2]: 33.7 ± 8.7^bc per sticky trap
- Mean number of NCR per sticky trap after 24 hours [3]: 4.0 ± 1.4^b per sticky trap

Compound: CC(=O)/C=C/C1C(C)=CCCC1(C)C (stereo not drawn) [α-ionone]
- Mean number of D. barberi per day (±standard deviation) (D. barberi): 0.3 ± 0.5^a per day
- Mean number of D. cristata per day (±standard deviation) (D. cristata): 2.8 ± 2.1^a per day
- Mean number of D. v. virgifera per day (±standard deviation) (D. v. virgifera): 0.0^a per day
- Mean number of D. u. howardi per day (±standard deviation) (D. u. howardi): 0.0^a per day
- Attractant Rating NCR (by limit of response) (NCR): 0 (200)
- Attractant Rating SCR (by limit of response) (SCR): 0 (200)
- Attractant Rating WCR (by limit of response) (WCR): 0 (200)

Compound: O=CCc1ccccc1 [Phenylacetaldehyde]
- relative percent activity (SCR) as compared with the highest mean value for the test date [4, 6]: 8%
- Mean number of SCR per trap (±standard deviation) [4, 6]: 3.0 ± 1.2 per trap
- relative percent activity (SCR) as compared with the highest mean value for the test date [4, 7]: 12%
- Mean number of SCR per trap (±standard deviation) [4, 7]: 5.3 ± 3.2 per trap
- Mean number of SCR per trap (±standard deviation) [4, 8]: 2.5 ± 1.9 per trap
- relative percent activity of the mean SCR trap catch as compared with the highest mean value in the column [4, 9]: 12%
- relative percent activity (WCR) as compared with the highest mean value for the test date [5, 6]: 35%
- Mean number of WCR per trap (±standard deviation) [5, 6]: 17.8 ± 7.9 per trap
- relative percent activity (WCR) as compared with the highest mean value for the test date [5, 7]: 42%
- Mean number of WCR per trap (±standard deviation) [5, 7]: 13.3 ± 8.1 per trap
- Mean number of WCR per trap (±standard deviation) [5, 8]: 1.8 ± 1.3 per trap
- relative percent activity of the mean WCR trap catch as compared with the highest mean value in the column [5, 9]: 26%
- Attractant Rating NCR (by limit of response) (NCR): 0 (200)
- Attractant Rating SCR (by limit of response) (SCR): +2 (10-30)
- Attractant Rating WCR (by limit of response) (WCR): 0 (200)
